Experimental data published in patent publication US20240109881A1, “Heteroaryl Compounds as Ligand Directed Degraders of IRAK4” (Bristol-Myers Squibb Company, priority 2022, published 2024).
Structures can show the parent of a compound that is named as a salt.

Target: T1, IRAK4 (Homo sapiens, UniProt Q9NWZ3)
T1 construct: endogenous in cells; host or cells: THP-1 cells
T1 sequence (Q9NWZ3 1-460): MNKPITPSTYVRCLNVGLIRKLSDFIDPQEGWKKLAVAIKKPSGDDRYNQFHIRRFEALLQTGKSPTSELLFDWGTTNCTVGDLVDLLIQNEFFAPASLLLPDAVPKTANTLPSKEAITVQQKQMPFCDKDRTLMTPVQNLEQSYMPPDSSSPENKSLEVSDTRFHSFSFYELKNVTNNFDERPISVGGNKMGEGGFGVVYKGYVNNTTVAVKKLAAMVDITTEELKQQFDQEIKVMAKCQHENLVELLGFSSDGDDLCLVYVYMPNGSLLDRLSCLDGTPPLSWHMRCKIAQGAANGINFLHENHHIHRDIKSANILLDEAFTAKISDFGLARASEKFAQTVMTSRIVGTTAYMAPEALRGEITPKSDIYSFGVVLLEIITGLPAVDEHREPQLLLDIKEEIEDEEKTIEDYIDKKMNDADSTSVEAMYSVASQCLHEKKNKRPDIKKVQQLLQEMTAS
Assay: LVL THP1 HTRF (THP1 Homogeneous Time Resolved Fluorescence)
Format: cell-based
Settings: THP1 cells, 18 h incubation with compound; for DC50: read-out: LVL THP1 HTRF EC50
Method in brief: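 THP-1 cells in phenol red-free RPMI with 10% FBS were dosed with compound (20 nL in DMSO) for 18 h at 37° C. After 2 h lysis, IRAK4 was detected with anti-IRAK4-d2/anti-IRAK4-K HTRF antibodies for 18 h at room temperature and read at 665/615 nm; a parallel CTG plate was run.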

SMILES | LVL THP1 HTRF YMIN [%] | DC50 [nM]
C[C@H](C#N)Nc1cc(-n2ncc3cc(C#N)cnc32)ncc1C(=O)N[C@H]1CC[C@H](CCN2C3COCC2CN(c2ccc(C4CCC(=O)NC4=O)cc2)C3)CC1 (stereo partly shown) [P-189] | 25.3 | 54
C[C@H](C#N)Nc1cc(-n2ncc3cc(C#N)cnc32)ncc1C(=O)N[C@H]1CC[C@H](CCN2CCN(c3ccc(C4CCC(=O)NC4=O)cc3)C3(COC3)C2)CC1 (stereo partly shown) [P-190] | 24.9 | 158
C[C@H](C#N)Nc1cc(-n2ncc3cc(C#N)cnc32)ncc1C(=O)N[C@H]1CC[C@H](CCN2CCN(c3ccc(C4CCC(=O)NC4=O)cc3)C3(CC3)C2)CC1 (stereo partly shown) [P-191] | 20.4 | 1790
CCc1nc2c(cnn2-c2cc(N[C@H](C)C#N)c(C(=O)N[C@H]3CC[C@H](CCN4CCN(c5ccc(C6CCC(=O)NC6=O)cc5)CC4)CC3)cn2)cc1C#N (stereo partly shown) [P-192] | 1.0 | 58
C[C@H](C#N)Nc1cc(-n2ncc3cc(C#N)cnc32)ncc1C(=O)N[C@H]1CC[C@H](CCN2CC3COCC(C2)N3c2ccc(C3CCC(=O)NC3=O)cc2)CC1 (stereo partly shown) [P-194] | 39.8 | 4040
C[C@H](C#N)Nc1cc(-n2ncc3cc(C#N)cnc32)ncc1-c1cn(C2CCC(CCN3CCN(c4ccc(C5CCC(=O)NC5=O)cc4)CC3)CC2)nn1 (stereo partly shown) [P-195] | 2.2 | 
C[C@H](C#N)Nc1cc(-n2ncc3cc(C#N)cnc32)ncc1-c1cn([C@H]2CC[C@H](CCN3CCN(c4ccc(C5CCC(=O)NC5=O)cc4)CC3)CC2)nn1 (stereo partly shown) [P-195] |  | 6
C[C@H](C#N)Nc1cc(-n2ncc3cc(C#N)cnc32)ncc1-c1cc(C2CCC(CCN3CCN(c4ccc(C5CCC(=O)NC5=O)cc4)CC3)CC2)on1 (stereo partly shown) [P-196] | 3.5 | 
C[C@H](C#N)Nc1cc(-n2ncc3cc(C#N)cnc32)ncc1-c1cc([C@H]2CC[C@H](CCN3CCN(c4ccc(C5CCC(=O)NC5=O)cc4)CC3)CC2)on1 (stereo partly shown) [P-196] |  | 167
CC(C#N)Nc1cc(-n2ncc3cc(C#N)cnc32)ncc1-n1cc(C2CCC(C(F)CN3CCN(c4ccc(C5CCC(=O)NC5=O)cc4)CC3)CC2)nn1 (stereo not shown) [P-198] | 1.2 | 10
C[C@H](C#N)Nc1cc(-n2ncc3cc(C#N)cnc32)ncc1-n1cc([C@H]2CC[C@H](C(Cl)CN3CCN(c4ccc(C5CCC(=O)NC5=O)cc4)CC3)CC2)nn1 (stereo partly drawn) [P-199, 1-(5-(4-((1R,4R)-4-((1R)-1-chloro-2-(4-(4-(2,6-dioxopiperidin-3-yl)phenyl)piperazin-1-yl)ethyl)cyclohexyl)-1H-1,2,3-triazol-1-yl)-4-(((R)-1-cyanoethyl)amino)pyridin-2-yl)-1H-pyrazolo[3,4-b]pyridine-5-carbonitrile.TFA] | 2.7 | 2
C[C@H](C#N)Nc1cc(-n2ccc3cc(C#N)c(N)nc32)ncc1C(=O)N[C@H]1CC[C@H](CCN2CCN(c3ccc(C4CCC(=O)NC4=O)cc3)CC2)CC1 (stereo partly shown) [P-200] | 1.5 | 13
C[C@H](C#N)Nc1cc(-n2ncc3cc(C#N)cnc32)ncc1-n1cc(C2CCC(CCN3[C@@H](C)CN(c4ccc(C5CCC(=O)NC5=O)cc4)C[C@@H]3C)CC2)nn1 (stereo partly shown) [P-201] | 0.6 | 2
C[C@H](C#N)Nc1cc(-n2ncc3cc(C#N)cnc32)ncc1-n1cc(C23CCC(CCN4CCN(c5ccc(C6CCC(=O)NC6=O)cc5)CC4)(CC2)C3)nn1 (stereo partly drawn) [P-202, 1-(4-(((R)-1-cyanoethyl)amino)-5-(4-(4-(2-(4-(4-(2,6-dioxopiperidin-3-yl)phenyl)piperazin-1-yl)ethyl)bicyclo[2.2.1]heptan-1-yl)-1H-1,2,3-triazol-1-yl)pyridin-2-yl)-1H-pyrazolo[3,4-b]pyridine-5-carbonitrile, TFA] | 1.4 | 10
C[C@H](C#N)Nc1cc(-n2ncc3cc(C#N)cnc32)ncc1-c1cnn(C2CCC(CCN3CCN(c4ccc(C5CCC(=O)NC5=O)cc4)CC3)CC2)c1 (stereo partly shown) [P-203] | 3.0 | 
C[C@H](C#N)Nc1cc(-n2ncc3cc(C#N)cnc32)ncc1-c1cnn([C@H]2CC[C@H](CCN3CCN(c4ccc(C5CCC(=O)NC5=O)cc4)CC3)CC2)c1 (stereo partly shown) [P-203] |  | 11
C[C@@H](C#N)Nc1cc(-n2ncc3cc(C#N)cnc32)ncc1-n1cc(C2CCC(CCN3CCN(c4ccc(C5CCC(=O)NC5=O)cc4)CC3)CC2)nn1 (stereo partly shown) [P-205] | 1.1 | 
C[C@@H](C#N)Nc1cc(-n2ncc3cc(C#N)cnc32)ncc1-n1cc([C@H]2CC[C@H](CCN3CCN(c4ccc(C5CCC(=O)NC5=O)cc4)CC3)CC2)nn1 (stereo partly shown) [P-205] |  | 30
C[C@H](C#N)Nc1cc(-n2ncc3cc(C#N)cnc32)ncc1-n1cc(C2CCC(CCN3C[C@H](C)N(c4ccc(C5CCC(=O)NC5=O)cc4)C[C@H]3C)CC2)nn1 (stereo partly shown) [P-206] | 1.1 | 2
C[C@H](C#N)Nc1cc(-n2ncc3cc(C#N)c(N)nc32)ncc1-n1cc(C2CCC(CCN3C[C@@H](C)N(c4ccc(C5CCC(=O)NC5=O)cc4)C[C@@H]3C)CC2)nn1 (stereo partly shown) [P-207] | 1.3 | > 5000

SMILES | LVL THP1 HTRF YMIN [%] | DC50 [nM]
C[C@H](C#N)Nc1cc(-n2ncc3cc(C#N)cnc32)ncc1-n1cc(C2CCC(CCN3C[C@@H](C)N(c4ccc(C5CCC(=O)NC5=O)cc4)C[C@@H]3C)CC2)nn1 (stereo partly shown) [P-208] | 1.4 | 9
C[C@H](C#N)Nc1cc(-n2ncc3cc(C#N)cnc32)ncc1-n1cc(C2CCC(CCN3CCC(c4ccc(C5CCC(=O)NC5=O)cc4)CC3)CC2)nn1 (stereo partly shown) [P-209] | 0.9 | 
C[C@H](C#N)Nc1cc(-n2ncc3cc(C#N)cnc32)ncc1-n1cc([C@H]2CC[C@H](CCN3CCC(c4ccc(C5CCC(=O)NC5=O)cc4)CC3)CC2)nn1 (stereo partly shown) [P-209] |  | 1
C[C@H](C#N)Nc1cc(-n2ncc3cc(C#N)cnc32)ncc1-n1cc(C2CCC(CCN3CCN(c4ccc([C@]5(C)CCC(=O)NC5=O)cc4)CC3)CC2)nn1 (stereo partly shown) [P-210] | >95.0 | 15
C[C@H](C#N)Nc1cc(-n2ncc3cc(C#N)cnc32)ncc1-c1cc(C2CCC(CCN3CCN(c4ccc(C5CCC(=O)NC5=O)cc4)CC3)CC2)no1 (stereo partly shown) [P-211] | 1.1 | 
C[C@H](C#N)Nc1cc(-n2ncc3cc(C#N)cnc32)ncc1-c1cc([C@H]2CC[C@H](CCN3CCN(c4ccc(C5CCC(=O)NC5=O)cc4)CC3)CC2)no1 (stereo partly shown) [P-211] |  | 3
CC(C#N)Nc1cc(-n2ncc3cc(C#N)cnc32)ncc1-n1cc(C23CCC(CCN4CCN(c5ccc(C6CCC(=O)NC6=O)cc5)CC4)(CC2)CC3)nn1 (stereo not shown) [P-212] | 1.5 | 3
CC(C#N)Nc1cc(-n2ncc3cc(C#N)cnc32)ncc1-n1cc(C2CCC(C(C)CN3CCN(c4ccc(C5CCC(=O)NC5=O)cc4)CC3)CC2)nn1 (stereo not shown) [P-213] | 1.7 | 2
C[C@H](C#N)Nc1cc(-n2ncc3cc(C#N)c(N)nc32)ncc1-n1cc(C2CCC(CCN3CCC(c4ccc(C5CCC(=O)NC5=O)cc4)CC3)CC2)nn1 (stereo partly shown) [P-214] | <0.5 | 
C[C@H](C#N)Nc1cc(-n2ncc3cc(C#N)c(N)nc32)ncc1-n1cc([C@H]2CC[C@H](CCN3CCC(c4ccc(C5CCC(=O)NC5=O)cc4)CC3)CC2)nn1 (stereo partly shown) [P-214] |  | < 1
C[C@H](C#N)Nc1cc(-n2ncc3cc(C#N)c(N)nc32)ncc1-n1cc(C2CCC(CCN3C[C@H](C)N(c4ccc(C5CCC(=O)NC5=O)cc4)C[C@H]3C)CC2)nn1 (stereo partly shown) [P-215] | 0.7 | < 1
C[C@H](C#N)Nc1cc(-n2ncc3cc(C#N)c(N)nc32)ncc1-n1cc(C2CCC(CCN3CCN(c4ccc(C5CCC(=O)NC5=O)cc4)[C@H](C)C3)CC2)nn1 (stereo partly shown) [P-216] | 1. | 1
CS(=O)(=O)N1CCC(Nc2cc(-n3ncc4cc(C#N)c(N)nc43)ncc2-n2cc(C3CCC(CCN4CCN(c5ccc(C6CCC(=O)NC6=O)cc5)CC4)CC3)nn2)CC1 (stereo not shown) [P-217] | 1.6 | 
CS(=O)(=O)N1CCC(Nc2cc(-n3ncc4cc(C#N)c(N)nc43)ncc2-n2cc([C@H]3CC[C@H](CCN4CCN(c5ccc(C6CCC(=O)NC6=O)cc5)CC4)CC3)nn2)CC1 (stereo partly shown) [P-217] |  | 9
C[C@H](C#N)Nc1cc(-n2ncc3cncnc32)ncc1-n1cc(C2CCC(CCN3CCN(c4ccc(C5CCC(=O)NC5=O)cc4)CC3)CC2)nn1 (stereo partly shown) [P-218] | 4.3 | 
C[C@H](C#N)Nc1cc(-n2ncc3cncnc32)ncc1-n1cc([C@H]2CC[C@H](CCN3CCN(c4ccc(C5CCC(=O)NC5=O)cc4)CC3)CC2)nn1 (stereo partly shown) [P-218] |  | 6
C[C@H](C#N)Nc1cc(-n2ncc3cc(C#N)c(N)nc32)ncc1-n1cc(C2CCC(CCN3CCN(c4ccc(C5CCC(=O)NC5=O)cc4)[C@@H](C)C3)CC2)nn1 (stereo partly shown) [P-219] | 1.8 | 6
C[C@H](C#N)Nc1cc(-n2ncc3cc(C#N)c(N)nc32)ncc1-n1cc(C2CCC(CCN3[C@H](C)CN(c4ccc(C5CCC(=O)NC5=O)cc4)C[C@H]3C)CC2)nn1 (stereo partly shown) [P-220] | 4.3 | 6
C[C@H](C#N)Nc1cc(-n2ncc3cc(C#N)cnc32)ncc1-n1cc(C2CCC(CCN3[C@H](C)CN(c4ccc(C5CCC(=O)NC5=O)cc4)C[C@H]3C)CC2)nn1 (stereo partly shown) [P-221] | 1.4 | 5
C[C@H](C#N)Nc1cc(-n2ncc3cc(C#N)c(N)nc32)ncc1-n1cc(C2CCC(CCN3CCN(c4ccc([C@@]5(C)CCC(=O)NC5=O)cc4)CC3)CC2)nn1 (stereo partly shown) [P-222] | 2.1 | 
